# Laboratory results: PMC12281424, “A Rac-specific competitive inhibitor of guanine nucleotide binding reduces metastasis in triple-negative breast cancer” (Cell Reports Medicine, 2025)
# Experiments:
# Dopamine D2S = Dopamine D2S (Homo sapiens, UniProt P14416); experiment: Safety screen; format: binding
# Description: (§1) Blood cell counts, kinase profiler, safety screen, bacterial cytotoxicity, Ames, micronucleus assays were performed by the company Eurofins (France).
# cKit(V654A)(h) = cKit(V654A)(h) (Homo sapiens, UniProt P10721, V654A); experiment: Kinase Profiler; format: biochemical
# Description: (§2) Blood cell counts, kinase profiler, safety screen, bacterial cytotoxicity, Ames, micronucleus assays were performed by the company Eurofins (France). The kinase profiler was performed by the company Eurofins (Discovery, Panlab and Cerep).
# CaMKK1(h) = CaMKK1(h) (Homo sapiens, UniProt Q8N5S9); experiment: Kinase Profiler; format: biochemical
# Description: (§3) The kinase profiler was performed by the company Eurofins (Discovery, Panlab and Cerep).
# PKBβ(h) = PKBβ(h) (Homo sapiens, UniProt P31751); experiment: Kinase Profiler; format: biochemical
# Description: as §3
# PIP5K1a(h) = PIP5K1a(h) (Homo sapiens, UniProt Q99755); experiment: Kinase Profiler; format: biochemical
# Description: as §3
# [1] = target: Peptidase, CTSG (Cathepsin G) (Homo sapiens, UniProt P08311); experiment: Safety screen; format: biochemical
# Description: as §1
# LIMK1(h) = LIMK1(h) (Homo sapiens, UniProt P53667); experiment: Kinase Profiler; format: biochemical
# Description: as §3
# RHOA = RHOA (Homo sapiens, UniProt P61586); experiment: GEF-stimulated nucleotide exchange; format: biochemical; set-up: Full-length RAC2, RHOG, RHOA and CDC42 were purified as previously described; made in house; p115RhoGEF DH-PH in insect cells (Sf21); details: 10^-5 M
# From the text: Figure 4 A41 selectively impairs RAC protein activation (A) Representative surface plasmon resonance (SPR) sensograms of binding of immobilized RHOA or CDC42 with indicated increasing concentrations of A41 (N > 3). (B) Effect of A41 on GEF-stimulated RAC2, RHOG, RHOA, and CDC42 nucleotide exchange. […] Kobs is expressed as mean ± SEM. ∗p < 0.001 vs. control. (C) Effect of A41 on RAC1 G30S activation. […] The GEF TRIO was used to induce nucleotide exchange (N = 3). Data are expressed as mean ± SEM. (D) Immunoblot analysis and associated quantification of RAC-GTP level and total RAC expression in NIH-3T3 fibroblasts expressing RAC wild-type (RAC1 WT) or RAC1 oncomutants (RAC1 P29S and RAC1b) in the absence (Ctrl) and presence of A41 (10 μM). RAC activation was measured as the ratio of RAC-GTP to total RAC and expressed relative to Ctrl condition. Data are presented as mean ± SEM. ∗∗∗p < 0.001 vs. controls.
# Full-length RAC1 carrying a 6xHis tag in C-terminus was purified as previously described.[64] […] Specific exchange activity toward RHOA determined by fluorescence kinetics is 0.04 s^−1M^−1.
# Nucleotide exchange kinetics were measured by recording the increase in fluorescence following the association of mant-GTP on GDP-bound RHO protein or the decay in fluorescence following the dissociation of mant-GDP pre-loaded onto the RHO protein (λEx = 360 nm, λEm = 440 nm) as previously described.[39] […]
# [2] = test system: Glycine, Strychnine-Sensitive; experiment: Safety screen; format: binding, rat
# Plk3(h) = Plk3(h) (Homo sapiens, UniProt Q9H4B4); experiment: Kinase Profiler; format: biochemical
# Description: as §2
# TGFBR2(h) = TGFBR2(h) (Homo sapiens, UniProt P37173); experiment: Kinase Profiler; format: biochemical
# Description: as §2
# CK1ε(h) = CK1ε(h) (Homo sapiens, UniProt P49674); experiment: Kinase Profiler; format: biochemical
# Description: as §2
# PRP4(h) = PRP4(h) (Homo sapiens, UniProt Q13523); experiment: Kinase Profiler; format: biochemical
# Description: as §3
# ULK2(h) = ULK2(h) (Homo sapiens, UniProt Q8IYT8); experiment: Kinase Profiler; format: biochemical
# Description: as §2
# STK32B(h) = STK32B(h) (Homo sapiens, UniProt Q9NY57); experiment: Kinase Profiler; format: biochemical
# Description: as §3
# CaMKK2(h) = CaMKK2(h) (Homo sapiens, UniProt Q96RR4); experiment: Kinase Profiler; format: biochemical
# Sequence of CaMKK2(h) (Q96RR4 whole entry): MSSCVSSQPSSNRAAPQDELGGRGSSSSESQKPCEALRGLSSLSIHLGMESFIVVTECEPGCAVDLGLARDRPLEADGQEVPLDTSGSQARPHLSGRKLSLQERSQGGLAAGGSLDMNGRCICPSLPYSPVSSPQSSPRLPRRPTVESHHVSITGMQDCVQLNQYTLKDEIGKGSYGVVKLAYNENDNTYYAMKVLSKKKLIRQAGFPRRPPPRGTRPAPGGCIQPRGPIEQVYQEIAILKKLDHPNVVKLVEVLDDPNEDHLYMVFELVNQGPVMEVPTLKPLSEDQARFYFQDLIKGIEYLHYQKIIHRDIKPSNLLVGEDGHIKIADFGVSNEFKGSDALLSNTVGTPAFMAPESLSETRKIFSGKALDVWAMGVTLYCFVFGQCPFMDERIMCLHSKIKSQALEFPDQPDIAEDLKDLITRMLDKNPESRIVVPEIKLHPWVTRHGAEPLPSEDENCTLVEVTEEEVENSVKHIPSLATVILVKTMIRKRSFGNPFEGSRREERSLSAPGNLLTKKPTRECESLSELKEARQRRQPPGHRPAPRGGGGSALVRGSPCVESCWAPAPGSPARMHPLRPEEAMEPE
# Description: as §3
# Sequence of cKit(V654A)(h) (P10721 26-976 V654A): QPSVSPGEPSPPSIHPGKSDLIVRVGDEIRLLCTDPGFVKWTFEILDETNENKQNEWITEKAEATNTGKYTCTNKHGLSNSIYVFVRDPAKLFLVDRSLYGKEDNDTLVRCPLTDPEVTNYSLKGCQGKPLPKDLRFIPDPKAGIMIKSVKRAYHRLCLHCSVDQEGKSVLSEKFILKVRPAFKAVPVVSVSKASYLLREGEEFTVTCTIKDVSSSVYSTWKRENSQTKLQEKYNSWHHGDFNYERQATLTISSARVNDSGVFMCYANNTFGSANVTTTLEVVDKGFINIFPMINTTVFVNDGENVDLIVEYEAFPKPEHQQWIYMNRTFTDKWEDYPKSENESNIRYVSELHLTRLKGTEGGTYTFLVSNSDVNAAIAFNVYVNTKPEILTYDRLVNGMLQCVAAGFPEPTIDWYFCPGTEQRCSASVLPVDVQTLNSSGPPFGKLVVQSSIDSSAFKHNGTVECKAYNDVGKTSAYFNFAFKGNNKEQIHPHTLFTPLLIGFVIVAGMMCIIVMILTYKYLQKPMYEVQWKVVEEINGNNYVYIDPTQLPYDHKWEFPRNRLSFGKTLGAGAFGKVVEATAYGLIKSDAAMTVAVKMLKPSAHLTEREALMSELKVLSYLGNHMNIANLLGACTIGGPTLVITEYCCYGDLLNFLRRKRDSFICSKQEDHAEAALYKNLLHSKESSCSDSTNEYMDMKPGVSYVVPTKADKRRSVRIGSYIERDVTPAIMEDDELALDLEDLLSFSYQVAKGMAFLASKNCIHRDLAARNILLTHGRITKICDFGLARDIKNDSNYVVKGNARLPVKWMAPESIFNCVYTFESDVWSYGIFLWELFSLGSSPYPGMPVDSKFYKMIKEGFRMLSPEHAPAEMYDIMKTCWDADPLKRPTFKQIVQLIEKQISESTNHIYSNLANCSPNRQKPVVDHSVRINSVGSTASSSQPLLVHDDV
# Sequence of CaMKK1(h) (Q8N5S9 whole entry): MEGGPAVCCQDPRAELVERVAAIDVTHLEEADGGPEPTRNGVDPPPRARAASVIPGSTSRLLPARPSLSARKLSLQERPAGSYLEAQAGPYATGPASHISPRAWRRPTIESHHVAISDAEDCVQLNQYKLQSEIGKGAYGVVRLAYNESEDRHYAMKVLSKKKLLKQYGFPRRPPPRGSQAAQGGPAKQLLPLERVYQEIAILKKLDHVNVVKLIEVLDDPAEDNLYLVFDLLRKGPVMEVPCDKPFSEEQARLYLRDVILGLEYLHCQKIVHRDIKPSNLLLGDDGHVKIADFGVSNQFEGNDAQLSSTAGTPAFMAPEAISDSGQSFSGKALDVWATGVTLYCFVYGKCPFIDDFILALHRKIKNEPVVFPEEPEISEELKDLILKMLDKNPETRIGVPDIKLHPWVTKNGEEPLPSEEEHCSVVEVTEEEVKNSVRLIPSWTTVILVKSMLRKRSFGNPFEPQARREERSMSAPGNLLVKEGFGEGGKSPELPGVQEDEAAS
# Sequence of TGFBR2(h) (P37173 23-567): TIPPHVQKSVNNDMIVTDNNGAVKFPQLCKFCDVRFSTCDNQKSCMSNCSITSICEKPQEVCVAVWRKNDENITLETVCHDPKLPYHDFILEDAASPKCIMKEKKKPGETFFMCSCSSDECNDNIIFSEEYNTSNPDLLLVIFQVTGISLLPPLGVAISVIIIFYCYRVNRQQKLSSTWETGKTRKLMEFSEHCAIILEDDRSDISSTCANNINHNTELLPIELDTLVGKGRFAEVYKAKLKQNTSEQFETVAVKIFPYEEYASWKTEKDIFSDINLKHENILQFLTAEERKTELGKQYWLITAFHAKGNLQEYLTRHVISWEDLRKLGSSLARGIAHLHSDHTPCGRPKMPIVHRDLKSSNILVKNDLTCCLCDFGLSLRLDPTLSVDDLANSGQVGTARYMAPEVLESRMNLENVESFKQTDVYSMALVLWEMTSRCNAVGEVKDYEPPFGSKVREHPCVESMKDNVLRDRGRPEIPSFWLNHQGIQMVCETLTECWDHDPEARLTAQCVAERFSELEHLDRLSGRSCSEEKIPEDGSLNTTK
# Sequence of ULK2(h) (Q8IYT8 whole entry): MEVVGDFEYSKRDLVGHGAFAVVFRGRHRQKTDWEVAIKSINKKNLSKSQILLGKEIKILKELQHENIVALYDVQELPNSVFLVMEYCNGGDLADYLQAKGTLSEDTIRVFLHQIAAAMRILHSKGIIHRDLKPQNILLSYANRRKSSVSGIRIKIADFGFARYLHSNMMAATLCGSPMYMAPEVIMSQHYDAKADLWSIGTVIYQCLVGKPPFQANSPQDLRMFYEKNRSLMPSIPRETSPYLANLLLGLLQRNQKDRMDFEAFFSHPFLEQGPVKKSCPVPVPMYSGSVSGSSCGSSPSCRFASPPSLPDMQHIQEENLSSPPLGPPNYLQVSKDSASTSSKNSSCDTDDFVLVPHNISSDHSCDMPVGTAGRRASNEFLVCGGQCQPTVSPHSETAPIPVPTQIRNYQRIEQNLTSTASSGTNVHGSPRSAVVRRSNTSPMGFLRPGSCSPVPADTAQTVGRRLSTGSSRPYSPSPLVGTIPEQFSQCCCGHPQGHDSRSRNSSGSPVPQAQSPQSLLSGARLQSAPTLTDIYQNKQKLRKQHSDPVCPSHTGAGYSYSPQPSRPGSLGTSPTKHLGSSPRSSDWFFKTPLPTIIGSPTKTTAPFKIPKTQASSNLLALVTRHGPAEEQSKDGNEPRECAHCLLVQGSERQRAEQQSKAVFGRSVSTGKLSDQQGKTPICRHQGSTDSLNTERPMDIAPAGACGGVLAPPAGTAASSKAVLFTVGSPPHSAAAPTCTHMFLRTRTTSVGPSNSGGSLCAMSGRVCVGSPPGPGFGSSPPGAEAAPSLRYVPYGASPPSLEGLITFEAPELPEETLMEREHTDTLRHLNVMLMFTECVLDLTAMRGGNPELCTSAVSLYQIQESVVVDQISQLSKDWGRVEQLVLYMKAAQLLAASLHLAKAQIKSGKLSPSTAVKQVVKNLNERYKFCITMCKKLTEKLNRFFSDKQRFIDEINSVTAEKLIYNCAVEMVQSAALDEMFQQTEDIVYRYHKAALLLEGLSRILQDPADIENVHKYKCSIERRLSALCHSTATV
# Sequence of Plk3(h) (Q9H4B4 whole entry): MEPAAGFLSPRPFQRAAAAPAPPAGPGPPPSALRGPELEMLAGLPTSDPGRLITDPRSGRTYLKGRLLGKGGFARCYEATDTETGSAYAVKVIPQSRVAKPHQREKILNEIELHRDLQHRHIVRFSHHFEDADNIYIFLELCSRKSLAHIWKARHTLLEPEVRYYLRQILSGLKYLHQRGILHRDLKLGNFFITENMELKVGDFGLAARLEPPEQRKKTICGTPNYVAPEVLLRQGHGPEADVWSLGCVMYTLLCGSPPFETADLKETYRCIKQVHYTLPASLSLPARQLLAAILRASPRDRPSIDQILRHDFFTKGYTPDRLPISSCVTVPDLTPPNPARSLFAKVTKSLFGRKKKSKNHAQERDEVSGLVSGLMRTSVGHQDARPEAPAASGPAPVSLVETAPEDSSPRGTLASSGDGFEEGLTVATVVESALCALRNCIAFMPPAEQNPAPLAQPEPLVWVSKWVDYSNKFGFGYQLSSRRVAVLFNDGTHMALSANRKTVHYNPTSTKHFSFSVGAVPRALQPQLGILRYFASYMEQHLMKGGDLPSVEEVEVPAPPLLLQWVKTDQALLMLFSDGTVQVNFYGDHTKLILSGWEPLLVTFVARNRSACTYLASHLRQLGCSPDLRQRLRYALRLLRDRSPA
# Sequence of Peptidase, CTSG (Cathepsin G) (P08311 21-255): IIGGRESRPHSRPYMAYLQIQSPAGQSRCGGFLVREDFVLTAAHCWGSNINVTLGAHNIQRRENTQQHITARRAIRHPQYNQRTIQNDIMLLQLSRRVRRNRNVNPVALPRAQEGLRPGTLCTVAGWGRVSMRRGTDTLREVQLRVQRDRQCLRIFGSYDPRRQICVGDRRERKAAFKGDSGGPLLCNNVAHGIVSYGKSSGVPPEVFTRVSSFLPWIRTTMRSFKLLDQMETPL
# Sequence of PKBβ(h) (P31751 whole entry): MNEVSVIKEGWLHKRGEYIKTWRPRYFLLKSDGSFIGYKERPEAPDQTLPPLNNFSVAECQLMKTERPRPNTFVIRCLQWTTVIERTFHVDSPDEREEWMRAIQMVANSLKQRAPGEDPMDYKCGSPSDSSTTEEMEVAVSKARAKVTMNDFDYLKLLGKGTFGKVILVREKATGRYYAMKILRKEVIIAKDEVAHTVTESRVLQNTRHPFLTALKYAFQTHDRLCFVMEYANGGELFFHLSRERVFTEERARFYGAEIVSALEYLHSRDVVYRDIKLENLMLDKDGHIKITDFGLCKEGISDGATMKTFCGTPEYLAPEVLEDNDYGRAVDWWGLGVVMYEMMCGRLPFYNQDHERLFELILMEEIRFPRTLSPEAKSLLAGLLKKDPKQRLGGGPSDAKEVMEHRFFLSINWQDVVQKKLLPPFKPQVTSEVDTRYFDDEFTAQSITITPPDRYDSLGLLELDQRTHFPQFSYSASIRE
structure (smiles),measurement,setting,value
COc1ccc(OC)c(NS(=O)(=O)c2ccc(NC(=O)CCSc3ccc(C)cc3)cc2)c1 [Compound A41],% inh.,Dopamine D2S,35%
same,Activity(%),cKit(V654A)(h),99%
same,Activity(%),CaMKK1(h),95%
same,Activity(%),PKBβ(h),116%
same,Activity(%),PIP5K1a(h),100%
same,% inh.,[1],-2%
same,Activity(%),LIMK1(h),113%
same,activation of RHOA induced by p115RhoGEF DH-PH,RHOA,did not change the activation
same,% inh.,[2],-1%
same,Activity(%),Plk3(h),115%
same,Activity(%),TGFBR2(h),99%
same,Activity(%),CK1ε(h),108%
same,Activity(%),PRP4(h),110%
same,Activity(%),ULK2(h),99%
same,Activity(%),STK32B(h),105%
same,Activity(%),CaMKK2(h),110%
